Experimental findings from ChEMBL document CHEMBL3045479, “Synthesis and anti-cancer activity of some novel C-17 analogs of ursolic and oleanolic acids” (2013) are described below.

Common to all, as to type: functional
In assay [1] the test system is THP-1. Briefly: Growth inhibition of Homo sapiens (human) THP1 cells at 10 uM after 48 hr by SRB assay. The following applies: THP-1, 48 h, read-out: GI. In general terms: The SRB assay estimates cell density from bound dye.
The test system of assay [2] is PC-3. Briefly: Growth inhibition of Homo sapiens (human) PC3 cells at 10 uM after 48 hr by SRB assay. The following applies: PC-3, 48 h, read-out: GI.
Assay [3] concerns A549. Briefly: Growth inhibition of Homo sapiens (human) A549 cells at 10 uM after 48 hr by SRB assay. The conditions noted are these: A549, 48 h, read-out: GI.
Assay [4] relates to COLO 205. Put plainly: Growth inhibition of Homo sapiens (human) COLO205 cells at 10 uM after 48 hr by SRB assay. The conditions noted are these: COLO 205, 48 h, read-out: GI.
Assay [5] deals with IMR-32. Put plainly: Growth inhibition of Homo sapiens (human) IMR32 cells at 10 uM after 48 hr by SRB assay. The following applies: IMR-32, 48 h, read-out: GI.
For assay [6], the system named is SiHa. Briefly: Growth inhibition of Homo sapiens (human) SiHa cells at 10 uM after 48 hr by SRB assay. The following applies: read-out: GI.
Assay [7] deals with HeLa. Put plainly: Growth inhibition of Homo sapiens (human) HeLa cells at 10 uM after 48 hr by SRB assay. The conditions noted are these: read-out: GI.
The test system of assay [8] is SW-620. Briefly: Growth inhibition of Homo sapiens (human) SW620 cells at 10 uM after 48 hr by SRB assay. The following applies: SW-620, 48 h, read-out: GI.

With `C[C@H]1[C@H](C)CC[C@]2(C(=O)OCBr)CC[C@]3(C)C(=CC[C@@H]4[C@@]5(C)CC[C@H](O)C(C)(C)[C@@H]5CC[C@]43C)[C@H]12` [BROMOMETHYL-3BETA-HYDROXY-URS-12-EN-28-OATE], the inhibition of growth at 10 µM turned out to be 49% in assay [1], 6% in assay [2], 7% in assay [3] and 13% in assay [4].
For `C[C@H]1[C@H](C)CC[C@]2(C(=O)OCCCBr)CC[C@]3(C)C(=CC[C@@H]4[C@@]5(C)CC[C@H](O)C(C)(C)[C@@H]5CC[C@]43C)[C@H]12` [BROMOPROPYL-3BETA-HYDROXY-URS-12-EN-28-OATE] the same measures were 68%, 0%, 9% and 10%.
For `C[C@H]1[C@H](C)CC[C@]2(C(=O)OCCCCCCBr)CC[C@]3(C)C(=CC[C@@H]4[C@@]5(C)CC[C@H](O)C(C)(C)[C@@H]5CC[C@]43C)[C@H]12` [BROMOHEXYL-3BETA-HYDROXY-URS-12-EN-28-OATE], the inhibition of growth at 10 µM in assay [1] stood at 3%; in assay [2], 0%; in assay [3], 0%; in assay [4], 0%.
For `C[C@H]1[C@H](C)CC[C@]2(C(=O)O)CC[C@]3(C)C(=CC[C@@H]4[C@@]5(C)CC[C@H](O)C(C)(C)[C@@H]5CC[C@]43C)[C@H]12` [URSOLIC ACID], the inhibition of growth at 10 µM in assay [1] amounted to 52%; in assay [2] it was 60%; in assay [5], 13%; in assay [3], 8%; in assay [6], 67%; in assay [7] it was 65%. Moreover, the inhibition of growth at 10 µM in assay [8] came out at 71%; in assay [4] it was 7%.
